Reference: patent publication US7470518B2 (priority 2002, dated 2008)

What was measured:
[1] = test system: PC-12 cell
Source text: (§1) The patch clamp electrode solution contained 100-mM KCl, 2-mM MgCl2, 1-mM CaCl2, 11-mM EGTA, and 10-mM HEPES; pH was adjusted to 7.2 with KOH.
(§2) In these applications, as discussed above, both the flow rate of the fluids exiting the microchannels and the scan rate of the patch clamped cell are important. […] The width of each channel is 100 μm, the thickness is 50 μm, and the interchannel spacing is 25 μm. The procedure used for fabricating the microchannels and for patch clamping are identical to that described in Example 2 (see above). The patch clamped cell used was a PC-12 cell, which was placed between 10 to 20 micrometers away from the outlets of the microchannels. Channels 1, 3, 5 and 7 were filled with PBS buffer, while channels 2, 4 and 6 were filled with acetylcholine. The flow rate of the fluid streams was 6.8 mm/s.
The channel structure and experimental setup used in Example 3 can be used to carry out dose-response measurements, in which the concentrations of the ligands in each of the ligand streams differ by predetermined amounts. […] In this 7-channel structure, channels 1, 3, 5 and 7 were filled with PBS buffer, whereas channels 2, 4, and 6 were filled with 1 μM, 12 μM, and 200 μM nicotine, respectively. The flow rate used was 3.24 mm/s and the cell-scanning speed was 250 μm/s. The patch-clamped cell was placed between 10 to 20 μm away from the outlet of the microchannel.

[2] = biological target: T1, GABAA receptors (UniProt P28472+P62813); test: Whole-cell patch clamp antagonist dose-response, bicuculline loaded together with GABA, microfluidic scanning; format: cell-based; conditions: for IC50: with 100 μM GABA
T1 construct: expressed in transfected cells; host or cells: WSS-1 cells
T1 sequence (P62813 28-455): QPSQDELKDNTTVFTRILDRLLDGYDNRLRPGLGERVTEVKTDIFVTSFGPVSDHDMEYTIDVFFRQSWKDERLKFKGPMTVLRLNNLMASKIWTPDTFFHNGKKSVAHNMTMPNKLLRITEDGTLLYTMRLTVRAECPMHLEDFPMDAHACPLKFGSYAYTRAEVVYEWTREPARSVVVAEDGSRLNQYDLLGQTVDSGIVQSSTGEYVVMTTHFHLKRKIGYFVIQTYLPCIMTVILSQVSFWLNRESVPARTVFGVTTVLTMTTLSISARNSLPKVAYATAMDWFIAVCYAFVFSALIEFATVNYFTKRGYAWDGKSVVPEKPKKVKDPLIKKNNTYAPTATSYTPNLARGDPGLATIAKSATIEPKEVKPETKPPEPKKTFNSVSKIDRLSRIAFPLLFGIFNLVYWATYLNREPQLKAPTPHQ
T1 sequence (P28472 26-473): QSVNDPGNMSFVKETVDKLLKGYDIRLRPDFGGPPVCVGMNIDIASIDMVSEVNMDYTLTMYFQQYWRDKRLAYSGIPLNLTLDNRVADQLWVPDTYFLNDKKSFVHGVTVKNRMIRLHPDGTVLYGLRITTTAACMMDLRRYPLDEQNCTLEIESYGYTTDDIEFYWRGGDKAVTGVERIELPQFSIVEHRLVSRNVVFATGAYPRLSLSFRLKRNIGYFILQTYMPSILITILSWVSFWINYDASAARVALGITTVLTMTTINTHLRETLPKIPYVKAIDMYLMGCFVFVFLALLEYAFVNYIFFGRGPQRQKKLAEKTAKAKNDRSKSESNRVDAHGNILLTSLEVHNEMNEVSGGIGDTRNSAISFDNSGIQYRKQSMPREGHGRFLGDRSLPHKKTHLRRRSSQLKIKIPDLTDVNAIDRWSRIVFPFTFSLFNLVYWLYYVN
T1 sequence (P18508 39-466 partner): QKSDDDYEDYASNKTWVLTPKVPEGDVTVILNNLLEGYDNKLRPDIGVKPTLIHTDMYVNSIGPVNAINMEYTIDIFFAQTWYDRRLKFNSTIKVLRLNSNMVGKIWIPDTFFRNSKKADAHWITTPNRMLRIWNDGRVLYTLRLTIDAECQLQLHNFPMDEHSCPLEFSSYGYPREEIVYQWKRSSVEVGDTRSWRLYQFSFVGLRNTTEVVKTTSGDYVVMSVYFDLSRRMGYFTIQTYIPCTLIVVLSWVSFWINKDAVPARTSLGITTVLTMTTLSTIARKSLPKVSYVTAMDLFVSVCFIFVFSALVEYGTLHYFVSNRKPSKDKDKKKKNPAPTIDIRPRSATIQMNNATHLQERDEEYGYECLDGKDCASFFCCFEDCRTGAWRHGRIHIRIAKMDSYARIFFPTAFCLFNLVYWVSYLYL
Method: Electrophysiology experiments were performed using a commercially available microfluidic device for patch-clamp (Dynaflow 16, Cellectricon AB, Göteborg Sweden). The device has 16 channels of dimensions 50×57 μm (w×h) separated by 22 μm thick walls at the point of exit into the open volume. The volume of the 16 sample reservoirs is 80 μl and the dimensions of the open volume are 30×35 mm. Prior to experiments the device was loaded with different solutions using a micropipette. A 2 mm thick polycarbonate lid was attached over the sample reservoirs using double adhesive tape (3M, Stockholm, Sweden) to create a closed system. The lid was connected to a syringe with PE tubing and a syringe pump (CMA/100, microinjection pump, Carnegie Medicine, Cambridge, UK) was used to compress the air enclosed by the lid to initiate a well defined pressure driven flow in the channels.
Adherent WSS-1 cells were cultivated in Petri dishes for 4-8 days in (DMEM/F12) medium supplemented with antibiotics and antimycotin (0.2%), fetal calf serum (10%), and L-glutamine. Before the experiments, cells were washed and detached in a HEPES-saline buffer (HBS) containing (in mM): 10 HEPES, 140 NaCl, 5 KCl, 1 CaCl2, 1 MgCl2, and 10 D-glucose (pH 7.4). All chemicals used in the cell cultures were from Sigma-Aldrich (Sigma-Aldrich Sweden AB, Stockholm, Sweden).
Patch clamp experiments were carried out in the whole-cell configuration (holding potential −60 mV, sampling frequency 5 kHz filter frequency 1 KHz). The cell bath solution (HBS) contained 10-mM HEPES, 140 -mM NaCl, 5-mM KCl, 1-mM CaCl2, 1-mM MgCl2, 10-mM D-glucose (pH 7.4). The patch clamp electrode solution contained 100-mM KCl, 2-mM MgCl2, 1-mM CaCl2, 11-mM EGTA, and 10-mM HEPES; pH was adjusted to 7.2 with KOH. The experiments were performed at room temperature (18-22° C.).
The competitive antagonist bicuculline was used at the concentrations of 0.01, 0.1, 1, 5, 10, 100 μM. […] As in the experiments with agonist, every second channel was filled with buffer solution for cleansing, and a resting time in buffer of at least three minutes was used before a return scan was made. Dose-response curves were obtained with texp of 100 ms and 3 s. […] FIGS. 34a and b show the results of a patch-clamp experiment. […] These sample channels were interdigitized with buffer channels in every other channel, and the exposure time were set to either 100 ms or 3 s.

[3] = test system: PC-12 cells; test: Whole-cell patch clamp current response of PC-12 cells to 1 mM acetylcholine (re-sensitization and scanning experiments); format: cell-based; conditions: decrease of mean whole-cell current
Source text: as §1, §2

CN1CCCC1c1cccnc1 (centres unmarked) [nicotine]
whole-cell current response ([1]; 1 μM nicotine): barely discernible | whole-cell current peak ([1]; 12 μM nicotine): detected with good signal-to-noise ratio

CN1CCc2cc3c(cc2[C@H]1[C@@H]1OC(=O)c2c1ccc1c2OCO1)OCO3 [bicuculline]
IC20 [2]: ~1 µM | IC50 ([2]; IC50, ascending order, texp=3 s): 8.46 ± 1.4 µM | IC50 ([2]; IC50, ascending order, texp=100 ms): 5.17 ± 0.4 µM | IC50 ([2]; IC50, descending order, texp=3 s): 1.84 ± 0.4 µM | IC50 ([2]; IC50, descending order, texp=100 ms): 3.56 ± 0.9 µM

CC(=O)OCC[N+](C)(C)C [acetylcholine]
exposure time to the agonist after which de-sensitization of the current response is observed [3]: > 5 s
